The text below walks through data of US20260318831A1 (University of Cincinnati, priority 2023, published 2026).

The structures appear in SMILES notation.

What all share (type): cell-based
Experiment [1] deals with endolysosomes in HeLa cells. The experiment can be described thus: Dynamics of PyQPMe-stained endolysosomes during autophagy. As for the experimental part:
FIGS. 6A-6H depict the dynamics of PyQPMe-stained endolysosomes during autophagy. FIG. 6A. Confocal images of HeLa cells incubated with PyQPMe following treatment with or without CCCP for 24 h. FIG. 6B. Quantification of total endolysosomes and late endosomes/lysosomes in PyQPMe-stained HeLa cells with or without CCCP treatment. FIG. 6C. The ratio of the number of late endosomes/lysosomes to total endolysosomes in PyQPMe-stained HeLa cells treated with or without CCCP. FIG. 6D. Quantification of ratio of red to green intensity in PyQPMe-stained HeLa cells without CCCP treatment. FIG. 6E. Quantification of ratio of red to green intensity in PyQPMe-stained HeLa cells with CCCP treatment for 24 h. FIG. 6F. Confocal images of HeLa cells incubated with PyQPMe following treatment with or without rapamycin for 24 h. FIG. 6G. Quantification of total endolysosomes and late endosomes/lysosomes in PyQPMe-stained HeLa cells with or without rapamycin treatment. FIG. 6H. The ratio of the number of late endosomes/lysosomes to total endolysosomes in PyQPMe-stained HeLa cells treated with or without rapamycin. Data are given as M±SEM (n=10 independent samples from 10 cells for each statistical analysis); the statistical differences were analyzed by Student's t-test, p<0.05 is considered to statistical significant (**** p≤0.0001; ns p>0.05).
Autophagy is a natural degradation process of cells that removes unnecessary or damaged biological macromolecules or organelles to maintain homeostasis. After autophagosomes engulf unnecessary components, both late endosomes and lysosomes can fuse with autophagosomes to degrade autophagosomal cargo by forming amphisomes and autolysosomes, respectively. To study the behavior of endolysosomes during autophagy, carbonyl [COMPOUND LEFT OUT] m-chlorophenyl hydrazone (CCCP), a common inducer for mitophagy (one type of autophagy), was exploited to induce autophagy in PyQPMe-stained cells. Cells were treated with 10 μM CCCP for 24 h prior to PyQPMe staining. […] As mentioned above (FIG. 2C), pH 5-6 is the cut-off point for the red to green fluorescence intensity ratio of PyQPMe, which perfectly matches the pH changes during conversion from early endosomes to late endosomes. […] Inversely, when the ratio is greater than 1, it represents the population of late endosomes/lysosomes (FIGS. 3D, 6D, 6E).
Rapamycin, a classical autophagy inducer, activates autophagy by inhibiting mTOR protein activation. To investigate the effect of rapamycin on endolysosomes, we treated HeLa cells with 0.5 μM rapamycin for 24 h prior to PyQPMe staining. […] To track the dynamics of endolysosomes in classical autophagy, the total endolysosomes and late endosomes/lysosomes in rapamycin-treated cells were quantified. […] Meanwhile, similar to the CCCP-induced mitophagy (FIGS. 6A, 6C), the proportion of late endosomes/lysosomes to total endolysosomes remained the same (~54%) during classical autophagy process (FIG. 6H).
(§1) Leica Stellaris 8 Confocal imaging. High-resolution images were acquired on a commercial Leica Stellaris 8 Confocal Microscope under LIGHTNING mode. Laser powers were set at 10% intensity for 405 nm and 640 nm channels. The objective was 63×/1.4. High-resolution images were captured from the randomly selected field of view and analyzed with Leica LAS X and ImageJ software. All the images were exported on the Auto scale of the Leica LAS X software. Cells were seeded on glassed-bottomed cell dishes (MatTek) for 24 hours. Cells stained with PyQPMe (20 nM, 10 min) were treated with Wortmannin (1 μM, 24 h), CCCP ([…], 24 h), rapamycin (0.5 μM, 24 h), chloroquine (25 μM, 30 min), and NH4Cl (50 mM, 30 min). All PCC values were analyzed in the CellProfiler.

For experiment [2], the system named is HeLa cells. Kind of experiment: Photobleaching comparison of LTR and PyQPMe. The settings on record: continuous confocal laser at 100% power. The source says: FIGS. 4A-4G depict the characterization of imaging properties of PyQPMe-stained endolysosomes. FIG. 4A. Confocal image of PyQPMe-stained endolysosomes and fluorescence intensity profile (FIG. 4B) of the write line in FIG. 4A. FIG. 4C. Confocal image of PyQPMe-stained late endosomes/lysosomes and fluorescence intensity profile (FIG. 4D) of the write line in FIG. 4C. FIG. 4E. Confocal images of HeLa cells labeled with LTR and PyQPMe and 3D fluorescence intensity plots of rectangles of integration. FIG. 4F. Continuous imaging of HeLa cells labeled with LTR or PyQPMe at 100% laser intensity for photobleaching, and each scan time was 10 s, images were captured under a red channel. FIG. 4G. Normalized fluorescence intensity of LTR and PyQPMe in FIG. 4F.
Resistance to photobleaching is a crucial property of probes that determines whether they can be used for long-term fluorescence tracking. To characterize this property, a photobleaching comparison study between LTR and PyQPMe was done in HeLa cells (FIG. 4F).
Leica Stellaris 8 Confocal imaging. High-resolution images were acquired on a commercial Leica Stellaris 8 Confocal Microscope under LIGHTNING mode. Laser powers were set at 10% intensity for 405 nm and 640 nm channels. […] High-resolution images were captured from the randomly selected field of view and analyzed with Leica LAS X and ImageJ software. […] All PCC values were analyzed in the CellProfiler.

Experiment [3] has as its system HeLa cells. The experiment can be described thus: Confocal imaging of PyQPMe uptake by endocytosis. Particulars: chloroquine 25 μM, 30 min; NH4Cl 50 mM. Here is the method: In some aspects, the probes of the present disclosure can be administered to living cells, either in vitro or in vivo. To take advantage of the absorption and emission spectra of PyQPMe, this probe was administered in high-resolution microscopy for living cells. The toxicity of PyQPMe was examined at first before characterizing its imaging properties. Cell Counting Kit-8 (CCK-8) was used to investigate the viability of HeLa cells stained with PyQPMe. […] Next, PyQPMe was characterized by Leica Stellaris Confocal Microscope in the LIGHTNING module for high-resolution imaging. […] The signal tended to be endolysosomes because endolysosomes have a low pH range from 4.7 to 6.3. […] Since low temperatures can inhibit endocytosis, experiments at a lower temperature were performed.
as §1

Experiment [4] relates to endolysosomes in HeLa cells. The experiment can be described thus: Dynamics of PyQPMe-stained endolysosomes (puncta counting). The settings on record: wortmannin 1 μM, 24 h. Here is the method:
FIGS. 5A-5H depict the characterization of dynamics of PyQPMe-stained endolysosomes. FIG. 5A. Confocal images of HeLa cells stained with PyQPMe following treatment with or without Wortmannin for 24 h. FIG. 5B. Schematic illustration of the effect of Wortmannin which inhibits the conversion from early endosomes into late endosomes. FIG. 5C. Quantification of total endolysosomes and late endosomes/lysosomes in PyQPMe-stained HeLa cells with or without Wortmannin treatment. FIG. 5D. The ratio of the number of late endosomes/lysosomes to total endolysosomes in PyQPMe-stained HeLa cells treated with or without Wortmannin. FIG. 5E. Confocal images of HeLa cells stained with PyQPMe for 10 min and 60 min. FIG. 5F. The mean red puncta fluorescence intensity of PyQPMe-stained HeLa cells for 10 min and 60 min incubation. FIG. 5G. Quantification of total endolysosomes and late endosomes/lysosomes in PyQPMe-stained HeLa cells for 10 min and 60 min. FIG. 5H. The ratio of the number of late endosomes/lysosomes to total endolysosomes in PyQPMe-stained HeLa cells for 10 min and 60 min. Data are given as M±SEM (n=10 independent samples from 10 cells for each statistical analysis); the statistical differences were analyzed by Student's t-test, p<0.05 is considered to statistical significant (** p≤0.01; *** p≤0.001; **** p≤0.0001; ns p>0.05).
Because of the popularity of quantitative cell biology, it is important to design powerful tools that can digitize individual cells and subcellular organelles to elucidate biological problems in detail. With its great pH response, long-term photostability, and excellent signal-to-noise ratio for high-resolution imaging, PyQPMe was successfully used to track the dynamics of endolysosomes within cells by counting the number of puncta fluorescence signals in both green and red channels (FIG. 5A).
Next, the effects of different incubation time on the endocytic pathway were tested.
as §1

As for `N#CC(C#N)=NNc1cccc(Cl)c1` [CCCP], the “number of total endolysosomes and late endosomes/lysosomes vs controls” value in experiment [1] (CCCP 10 μM, 24 h (mitophagy)) was “significant increase”. The “ratio of late endosomes/lysosomes to total endolysosomes” value in experiment [1] (CCCP 10 μM, 24 h, by counting (FIG. 6C)) is reported as ~ 55%. Moreover, in experiment [1] (CCCP 24 h (FIG. 6E), 52% without CCCP (FIG. 6D)), the “ratio of late endosomes/lysosomes to total endolysosomes from red to green intensity” value amounted to 56%. In addition, the “acidity of early and late endosomes” value in experiment [1] (CCCP, distribution of red to green intensity ratio) was “both early and late endosomes became more acidic”.

In the case of `CN(C)CCNC(=O)CCc1ccc2n1[B-](F)(F)[N+]1=C(c3ccc[nH]3)C=CC1=C2` [LTR, reference compound], in the experiment with HeLa cells [2], the “fluorescence intensity on photobleaching” value is “disappeared rapidly after two scans”.

For `Cl.N` [NH4Cl, reference compound], the “effect of endocytic inhibitor on PyQPMe fluorescence” value with HeLa cells [3] is “significant reduction in fluorescence”.

Consider `CCN(CC)CCCC(C)Nc1ccnc2cc(Cl)ccc12` (stereo not drawn) [chloroquine, reference compound], for which the “effect of endocytic inhibitor on PyQPMe fluorescence” value with HeLa cells [3] was “significant reduction in fluorescence”.

As to `CO[C@H]1C[C@@H]2CC[C@@H](C)[C@@](O)(O2)C(=O)C(=O)N2CCCC[C@H]2C(=O)O[C@H]([C@H](C)C[C@@H]2CC[C@@H](O)[C@H](OC)C2)CC(=O)[C@H](C)/C=C(\C)[C@@H](O)[C@@H](OC)C(=O)[C@H](C)C[C@H](C)/C=C/C=C/C=C/1C` [rapamycin], in experiment [1] (rapamycin 0.5 μM, 24 h), the “fluorescent spots in both green and red channels” value is given as “more fluorescent spots”; the “number of total endolysosomes and late endosomes/lysosomes” value is given as “significantly increased”. In addition, in experiment [1] (rapamycin 0.5 μM, 24 h (FIG. 6H)), the “proportion of late endosomes/lysosomes to total endolysosomes” value is ~ 54%.

Consider `COC[C@H]1OC(=O)c2coc3c2[C@@]1(C)C1=C(C3=O)[C@@H]2CCC(=O)[C@@]2(C)C[C@H]1OC(C)=O` [wortmannin, reference compound], for which, in experiment [4], the “number of endolysosomes vs untreated cells” value is reported as “much higher than that in untreated cells” and the “percentage of late endosomes/lysosomes in total endolysosomes vs untreated” value is listed as “significantly decreased”.
